The numbers were not newly measured in patent US20140294972A1, “Oral Suspension” (NOVA BIO-PHARMA TECHNOLOGIES LIMITED, priority 2011, published 2014), which cites them from elsewhere.

For the data set the following is noted: neutral pH.

Regarding `Sc1ncnc2nc[nH]c12` [6-MP, 3,7-dihydropurine-6-thione], the water solubility entry is recorded as “about 6.85 mg/mL”.
